The results in this text go back to ChEMBL document CHEMBL1142452, “Pyrazolidine-3,5-dione derivatives as potent non-steroidal agonists of farnesoid X receptor: virtual screening, synthesis, and biological evaluation” (Bioorg Med Chem Lett, 2008).

The source made the active and inactive calls. The rule behind the calls is not given here.

For assay [1], the target named is T1, Bile acid receptor (Homo sapiens) (UniProt Q96RI1).
T1 sequence (whole entry): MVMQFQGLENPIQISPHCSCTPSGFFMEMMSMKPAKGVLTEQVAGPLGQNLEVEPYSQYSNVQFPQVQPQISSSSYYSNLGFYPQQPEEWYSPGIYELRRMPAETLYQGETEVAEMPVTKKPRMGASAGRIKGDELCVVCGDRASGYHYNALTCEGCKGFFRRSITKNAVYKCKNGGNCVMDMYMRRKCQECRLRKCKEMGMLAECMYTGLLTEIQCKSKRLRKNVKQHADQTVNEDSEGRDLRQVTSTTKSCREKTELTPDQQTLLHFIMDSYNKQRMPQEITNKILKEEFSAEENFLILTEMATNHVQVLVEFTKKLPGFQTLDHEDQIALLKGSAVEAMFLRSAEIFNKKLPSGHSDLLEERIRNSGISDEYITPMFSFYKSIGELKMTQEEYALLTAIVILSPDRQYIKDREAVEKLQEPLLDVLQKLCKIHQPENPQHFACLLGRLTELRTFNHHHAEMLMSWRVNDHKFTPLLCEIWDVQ
In words: Agonist activity at FXR assessed as activation by cell based luciferase transactivation assay at less than 5 uM. In kind it is functional.

The target in assay [2] is T2, Bile acid receptor (Homo sapiens, UniProt Q96RI1).
T2 sequence (Q96RI1 whole entry): T1 sequence (whole entry)
Nature of the assay: Agonist activity at FXR assessed as activation by cell based luciferase transactivation assay. In kind it is functional.

For the compound `Cc1cccc(COc2cccc(/C=C3\C(=O)NN(C(=O)c4ccc(F)cc4)C3=O)c2)c1`, the outcome in assay [1] was Active. In assay [2], the EC50 came out at 1.86 µM.

For `O=C1NN(c2ccccc2)C(=O)/C1=C/c1cccc(OCc2ccc(C(F)(F)F)cc2)c1`, in assay [1], the result was Active. Also, the EC50 in assay [2] is 2.04 µM.

Regarding `O=C1C(=Cc2cccc([N+](=O)[O-])c2)C(=O)N(c2ccccc2)N1c1ccccc1`, the EC50 in assay [2] was found to be 4.27 µM.

Turning to `O=C1NN(c2ccccc2)C(=O)/C1=C/c1cccc(OCc2cccc(C(F)(F)F)c2)c1`, in assay [2], the EC50 turned out to be 6.92 µM.

Turning to `O=C1NN(C(=O)c2ccccc2)C(=O)/C1=C/c1ccc(OCc2ccccc2)cc1`, in assay [2], the EC50 amounted to 3.98 µM.

Consider `O=C1C(=Cc2ccc(OCc3ccccc3)cc2)C(=O)N(c2ccccc2)N1c1ccccc1`, for which, in assay [1], the result was Active. The EC50 in assay [2] was determined as 6.31 µM.

Turning to `Cc1cccc(COc2cccc(/C=C3\C(=O)NN(c4ccccc4)C3=O)c2)c1`, the EC50 in assay [2] amounted to 5.15 µM.

`Cc1cccc(COc2cccc(/C=C3\C(=O)NN(c4ccccc4[N+](=O)[O-])C3=O)c2)c1`: in assay [2], the EC50 came out at 5.37 µM.

As for `O=C1NN(c2ccccc2)C(=O)/C1=C/c1cccc(OCc2cccc(F)c2)c1`, the EC50 in assay [2] was 4.79 µM.

As to `Cc1cccc(COc2cccc(/C=C3\C(=O)NN(C(=O)c4ccncc4)C3=O)c2)c1`, the result in assay [1] was Active. Also, in assay [2], the EC50 worked out at 2.4 µM.

As to `CCOC(=O)C(=Cc1ccc(OCc2ccccc2)cc1)C(=O)OCC`, the EC50 in assay [2] is 6.17 µM.

In the case of `O=C1NN(C(=O)c2ccco2)C(=O)/C1=C/c1ccc(OCc2ccccc2)cc1`, the EC50 in assay [2] came out at 3.31 µM.
